Measurements published in patent US7056506B2, “Methods for detecting and inhibiting angiogenesis” (The Regents of the University of California, priority 1998, dated 2006).
Entries after “also recorded” stand apart in the source; their conditions may differ.

Tests used:
α5^+ HT29 cells = assay: Cell adhesion assay, adhesion to fibronectin; assay type: cell-based, human
Excerpt: (§1) HT29 integrin α5β1^+ cells, integrin α5β1^− colon carcinoma cells (Varner et al., Mol. Biol. Cell 6:725–740 (1995)), and chick embryo fibroblasts (CEF's) were maintained in DMEM high glucose supplemented with 10% fetal bovine serum (FBS) and gentamycin. Human umbilical vein endothelial cells (HUVEC's) were maintained in M199 medium containing sodium bicarbonate, HEPES, heparin, endothelial cell growth supplement, 20% FBS and gentamycin. Culture media and reagents were from Irvine Scientific (Irvine, Calif.).
(§2) The wells of 48 well culture dishes (Costar, Inc.) were coated with 1 μg/ml vitronectin, 2 μg/ml fibronectin (chick embryo fibroblasts and HUVEC's) or 10 μg/ml fibronectin (HT29-α5^+ cells) for 1 hr at 37° C., then blocked with 2% heat denatured BSA in PBS for 1 hr. Fifty thousand cells in 250 μl of adhesion buffer were added to triplicate wells containing 250 μl of a solution of 50 μg/ml of an anti-α5β1 function blocking antibody (NKI-SAM-1, JBS5 or IIA1), 50 μg/ml of an anti-α5β1 non-function blocking antibody (HA5 or VC5; Pharmingen, Inc.; San Diego Calif.), 10 μM cyclic peptides (Koivunen et al., J. Biol. Chem. 268:20205–20210 (1993); Koivunen et al., J. Cell Biol. 124:373380 (1994)), 0–10 μM SJ749 ((S)-2-{(2,4,6-trimethylphenyl)sulfonyl}amino-3{7-benzyloxycarbonyl-8-(2-pyridinylaminomethyl)-1-oxa-2,7-diazaspiro-{4,4}-non-2-en-3-yl}carbonylamino}propionic acid)), 50 μg/ml of LM609, an anti-αVβ3 function blocking antibody, 50 μg/ml P4C10, an anti-β1 function blocking antibody, 50 μg/ml of an anti-fibronectin cell binding domain monoclonal antibody or 50 μg/ml of an anti-fibronectin N-terminus monoclonal antibody in adhesion buffer (HEPES buffered Hanks balanced salt solution, HBSS, containing 1% BSA, 2 mM MgCl2, 2 mM CaCl2 and 0.2 mM MnCl2).
Cells were allowed to adhere to dishes for 20 min at 37° C. Nonadherent cells were removed by washing each well four times with 500 μl of warm adhesion buffer. […] Crystal violet was extracted by incubation for 15 min in 10% acetic acid and absorbance at 562 nm determined as an indicator of number of cells bound. […]

integrin α5β1 = biological target: T1, integrin α5β1 (Homo sapiens, UniProt P05556+P08648); assay: Integrin receptor ligand binding assay (biotinylated fibronectin); settings: fibronectin as ligand
T1 construct: Integrin αVβ3 and α5β1 receptor purified from human placenta were obtained from Chemicon International; purchased Chemicon International; host or cells: purified from human placenta (natural tissue)
Description: (§3) Integrin αVβ3 and α5β1 receptor purified from human placenta were obtained from Chemicon International. Platelet integrin αIIbβ3 was purified from platelets according to established procedures. Receptors were coated (100 μl/well) on Costar (3590) high capacity binding plates overnight at 4° C. Coating solution was discarded and plates were washed once with blocking/binding (B/B) buffer (50 mM Tris HCl, pH 7.4, 100 mM NaCl, 2 mM CaCl, 1 mM MgCl2, 1 mM MnCl2 and 1% BSA).
(§4) One hundred ten microliters of B/B buffer was applied for 60 min at RT. Thirty μl of biotinylated extracellular matrix protein ligand (fibronectin for integrin α5β1, vitronectin for integrin αVβ3 and fibrinogen for integrin αIIbβ3) plus 50 μl of either SJ749 in B/B buffer or B/B buffer alone were added to each well, and incubated for 25 min at RT. Plates were washed twice with B/B buffer and incubated 1 hr at RT, with anti-biotin alkaline phosphatase (100 μl/well) in B/B buffer. Finally, plates were washed twice with B/B followed by the addition of 100 μl of phosphatase substrate (1.5 mg/ml). Reaction was stopped by adding 2N NaOH (25 μl/well), and the developed color was read at 405 nm.

[1] = system: α5^+ HT29 colon carcinoma cells, CEF's and HUVEC's; assay: Cell adhesion assay, attachment to vitronectin; assay type: cell-based; settings: vitronectin coating
Excerpt: as §1
The wells of 48 well culture dishes (Costar, Inc.) were coated with 1 μg/ml vitronectin, 2 μg/ml fibronectin (chick embryo fibroblasts and HUVEC's) or 10 μg/ml fibronectin (HT29-α5^+ cells) for 1 hr at 37° C., then blocked with 2% heat denatured BSA in PBS for 1 hr. […]
Cells were allowed to adhere to dishes for 20 min at 37° C. […] Crystal violet was extracted by incubation for 15 min in 10% acetic acid and absorbance at 562 nm determined as an indicator of number of cells bound. […]

[2] = system: HT29 colon carcinoma cells lacking α5β1 expression; assay: Chick CAM tumor assay, HT29; assay type: in vivo; settings: HT29 tumors on CAM
Description: The chick CAM tumor assay was performed by placing ten million tumor cells on the surface of a CAM, and culturing the cells for one week. The resulting tumors were excised and cut into 50 mg fragments. […] Forty-eight hours later, CAM's were excised from the egg and the number of blood vessels entering the tumors were counted (as vessel branch points).
Data was presented as mean blood vessel number per treatment group (+/− standard error of measurement). Each treatment group incorporated at least ten tumors per experiment. Representative tumors were photographed at 10× magnification. Tumors were excised from the egg and tumor weights were determined for each tumor Data was presented as mean tumor weight per treatment group (+/− standard error of measurement). Statistical analyses were performed using Student's t-test.
HT29 colon carcinoma cells lacking α5β1 expression were grown on the CAM's of 10-day old embryos. These tumor cells secrete several angiogenic growth factors, including VEGF, TGFα, TGFβ, TNFα, and IL-8 (Anzano et al., Cancer Res. 49:2898–2904 (1989); Varner et. al., supra, 1995; Ellis et al., J. Biol. Chem. 273:1052–1057 (1998)). Integrin α5β1 negative tumor cells were used to distinguish the potential anti-tumor effects from anti-vasculature effects of integrin α5β1 antagonists.

[3] = system: chick embryo fibroblasts (CEF's); assay: Cell adhesion assay, adhesion to fibronectin; assay type: cell-based
Excerpt: as §1, §2
(§5) Cells were allowed to adhere to dishes for 20 min at 37° C. Nonadherent cells were removed by washing each well four times with 500 μl of warm adhesion buffer. Adherent cells were then fixed for 15 min with 3.7% paraformaldehyde in PBS and stained with a 2% crystal violet solution. After extensive water washing to remove excess crystal violet, plates were dried overnight. Crystal violet was extracted by incubation for 15 min in 10% acetic acid and absorbance at 562 nm determined as an indicator of number of cells bound. Each experiment was performed in triplicate, with triplicate samples per condition.

[4] = system: Human umbilical vein endothelial cells (HUVEC's); assay: Cell adhesion assay, adhesion to fibronectin; assay type: cell-based
Excerpt: as §1, §2, §5

integrin αVβ3 = biological target: T2, integrin αVβ3 (Homo sapiens, UniProt P05106+P06756); assay: Integrin receptor ligand binding assay (biotinylated vitronectin); settings: vitronectin as ligand
T2 construct: Integrin αVβ3 and α5β1 receptor purified from human placenta were obtained from Chemicon International; purchased Chemicon International; host or cells: purified from human placenta (natural tissue)
Description: as §3, §4

[5] = system: VEGF-induced angiogenesis on the chick CAM; assay: In ovo chick CAM angiogenesis assay, VEGF stimulated; assay type: in vivo; settings: VEGF stimulated CAM
Excerpt: (§6) Ten day old embryonated chicken eggs (McIntyre Poultry; Ramona Calif.) were candled to illuminate blood vessels under the shell and an area with a minimum of small blood vessels is identified. The CAM was dropped away from the eggshell in this area by grinding a small hole in the mineralized shell and applying pressure to the underlying inner shell membrane. This procedure caused an air pocket to shift from the wide end of the egg to the identified area and forcing a circular region of the CAM approximately 2 cm in diameter to drop away from the shell. A window was cut in the egg shell and a cortisone acetate pre-treated filter disc 5 mm in diameter that had been saturated in 1 μg/ml bFGF, VEGF, TNFα, IL-8 (Genzyme, Inc.; Cambridge Mass.) or saline was placed on the CAM. The window in the shell was sealed with adhesive tape and the egg was incubated for four days.
(§7) Anti-fibronectin antibodies (25 μg in 25 μl) also were applied topically to the CAM.
(§8) Fibronectin, vitronectin and fibronectin fragments (59 pmol in a final volume of 25 μl) were applied to stimulated or unstimulated CAM's. Peptide or small molecule antagonists of α5β1 (at a final serum concentration of 0–25 μM) also were injected intravenously into the chick circulation 24 hr later. CAM's were harvested on the fourth day of stimulation. Blood vessel branch points in the 5 mm filter disk area were counted at 30× magnification in a blinded fashion as a size-independent quantitative indicator of vascular sprouting in response to growth factors. Angiogenesis is characterized by the sprouting of new vessels in response to growth factors. Thus, counting of blood vessel branch points is a useful quantitative means of obtaining an angiogenic index (Brooks et al., In “Methods in Molecular Biology” (Humana Press 1999). At least ten embryos were used per treatment group. Each experiment was performed a minimum of three times.
(§9) Data was evaluated in terms of average number of blood vessel branch points per treatment group +/−standard error of measurement . Statistical analyses were performed using Student's t-test. Representative CAMS from each treatment group were photographed at 10X magnification. In some cases, CAM tissue excised from the egg was frozen in OCT (Baxter; McGraw Park Ill.) in liquid nitrogen, cut into 5 μm sections, air dried and processed for immunohistochemical analysis as described in Example I, except without fixation.

HUVEC's = assay: Cell migration assay on fibronectin; assay type: cell-based, human
Description: The lower side of 8 μm pore transwell inserts (Costar, Inc.) were coated with 2 μg/ml of fibronectin, collagen (Collaborative Biomedical Products; Bedford Mass.) or no protein for 1 hr and were blocked with 2% BSA in PBS for 1 hr. The inserts then were placed into 24 well culture dishes containing 500 μl migration buffer in the lower chamber. Twenty-five thousand HUVEC's in 50 μl of migration buffer (HEPES buffered M199 medium containing 1% BSA, 2 mM MgCl2, 2 mM CaCl2 and 0.2 mM MnCl2) were added to the upper chamber of duplicate inserts containing 50 μl of a solution of 50 μg/ml of anti-α5β1 function blocking antibody (NKI-SAM-1, JBS5 or IIA1), 50 μg/ml of anti-α5β1 non-function blocking antibody (HA5 or VC5), or 50 μg/ml of LM609 (an anti-αVβ3 function blocking antibody) in migration buffer, or migration buffer alone.
Cells were allowed to migrate from the upper to the lower chamber for 4 hr at 37° C. Nonmigratory cells were removed from the upper surface by wiping the upper side with an absorbant tip, and cells that had migrated to the lower side of the transwell insert were fixed for 15 min with 3.7% paraformaldehyde in PBS, then stained with a 2% crystal violet solution. After extensive water washing to remove excess crystal violet, the number of cells that had migrated were counted in three representative high power (200×) fields per insert. […]

[6] = system: growth factor-induced angiogenesis in chick embryos; assay: Chick CAM angiogenesis assay, systemic administration, growth factor not specified; assay type: in vivo; settings: chick embryo, read-out: amount inhibiting angiogenesis by 50% (converted)
Excerpt: Ten day old embryonated chicken eggs (McIntyre Poultry; Ramona Calif.) were candled to illuminate blood vessels under the shell and an area with a minimum of small blood vessels is identified. The CAM was dropped away from the eggshell in this area by grinding a small hole in the mineralized shell and applying pressure to the underlying inner shell membrane. This procedure caused an air pocket to shift from the wide end of the egg to the identified area and forcing a circular region of the CAM approximately 2 cm in diameter to drop away from the shell. […]
Fibronectin, vitronectin and fibronectin fragments (59 pmol in a final volume of 25 μl) were applied to stimulated or unstimulated CAM's. […] Blood vessel branch points in the 5 mm filter disk area were counted at 30× magnification in a blinded fashion as a size-independent quantitative indicator of vascular sprouting in response to growth factors. […] Thus, counting of blood vessel branch points is a useful quantitative means of obtaining an angiogenic index (Brooks et al., In “Methods in Molecular Biology” (Humana Press 1999). At least ten embryos were used per treatment group. Each experiment was performed a minimum of three times.
Data was evaluated in terms of average number of blood vessel branch points per treatment group +/−standard error of measurement . […]

[7] = system: bFGF-induced angiogenesis on the chick CAM; assay: In ovo chick CAM angiogenesis assay, bFGF stimulated; assay type: in vivo; settings: bFGF stimulated CAM
Excerpt: as §6, §7, §8, §9

T1 sequence (P08648 42-894 limits assumed): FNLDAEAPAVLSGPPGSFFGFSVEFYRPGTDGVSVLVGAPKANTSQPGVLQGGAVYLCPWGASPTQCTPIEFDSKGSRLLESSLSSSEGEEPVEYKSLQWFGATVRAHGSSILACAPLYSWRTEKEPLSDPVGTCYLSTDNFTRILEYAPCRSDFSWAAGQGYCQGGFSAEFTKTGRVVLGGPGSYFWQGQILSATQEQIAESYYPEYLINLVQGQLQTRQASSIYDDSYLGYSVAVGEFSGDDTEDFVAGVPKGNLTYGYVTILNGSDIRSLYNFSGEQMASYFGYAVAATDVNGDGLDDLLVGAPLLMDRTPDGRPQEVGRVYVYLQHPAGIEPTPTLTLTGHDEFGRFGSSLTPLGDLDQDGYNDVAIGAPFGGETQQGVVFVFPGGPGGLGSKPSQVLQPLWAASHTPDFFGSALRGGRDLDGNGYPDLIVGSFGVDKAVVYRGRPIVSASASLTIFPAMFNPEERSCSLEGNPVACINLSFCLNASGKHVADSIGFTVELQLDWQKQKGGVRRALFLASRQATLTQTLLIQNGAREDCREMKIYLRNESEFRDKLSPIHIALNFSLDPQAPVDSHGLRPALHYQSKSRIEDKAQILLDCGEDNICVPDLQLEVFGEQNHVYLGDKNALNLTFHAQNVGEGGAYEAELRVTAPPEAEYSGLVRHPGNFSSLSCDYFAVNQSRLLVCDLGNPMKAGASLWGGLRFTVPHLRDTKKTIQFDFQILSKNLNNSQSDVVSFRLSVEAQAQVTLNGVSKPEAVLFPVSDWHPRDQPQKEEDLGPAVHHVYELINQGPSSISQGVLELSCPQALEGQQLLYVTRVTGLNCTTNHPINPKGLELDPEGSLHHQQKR
T1 sequence (P08648 895-1049 partner limits assumed): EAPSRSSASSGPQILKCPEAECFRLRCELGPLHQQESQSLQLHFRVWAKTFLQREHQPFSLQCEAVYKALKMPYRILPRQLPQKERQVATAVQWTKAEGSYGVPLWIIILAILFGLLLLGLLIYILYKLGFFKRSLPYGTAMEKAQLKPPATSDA
T1 sequence (P05556 21-798): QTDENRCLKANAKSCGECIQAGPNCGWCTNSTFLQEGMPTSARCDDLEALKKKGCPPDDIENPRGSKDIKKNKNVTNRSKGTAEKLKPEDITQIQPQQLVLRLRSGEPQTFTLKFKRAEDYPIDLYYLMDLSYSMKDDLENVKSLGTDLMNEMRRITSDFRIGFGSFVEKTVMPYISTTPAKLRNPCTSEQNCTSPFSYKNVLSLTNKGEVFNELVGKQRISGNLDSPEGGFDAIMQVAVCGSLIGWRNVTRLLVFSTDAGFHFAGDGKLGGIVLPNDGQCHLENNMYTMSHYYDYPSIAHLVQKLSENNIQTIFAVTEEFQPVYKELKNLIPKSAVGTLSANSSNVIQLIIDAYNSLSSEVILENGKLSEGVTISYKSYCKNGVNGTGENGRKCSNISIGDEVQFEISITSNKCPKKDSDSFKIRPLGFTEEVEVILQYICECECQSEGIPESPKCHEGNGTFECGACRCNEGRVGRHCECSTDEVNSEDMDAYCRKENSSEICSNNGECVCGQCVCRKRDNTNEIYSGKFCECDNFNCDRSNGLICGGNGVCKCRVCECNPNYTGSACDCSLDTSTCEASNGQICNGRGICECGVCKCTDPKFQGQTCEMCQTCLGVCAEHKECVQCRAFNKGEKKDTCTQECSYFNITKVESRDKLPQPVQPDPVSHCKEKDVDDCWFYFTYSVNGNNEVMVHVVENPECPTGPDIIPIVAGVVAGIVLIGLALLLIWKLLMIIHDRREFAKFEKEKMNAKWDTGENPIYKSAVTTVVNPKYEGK
T2 sequence (P06756 31-889 limits assumed): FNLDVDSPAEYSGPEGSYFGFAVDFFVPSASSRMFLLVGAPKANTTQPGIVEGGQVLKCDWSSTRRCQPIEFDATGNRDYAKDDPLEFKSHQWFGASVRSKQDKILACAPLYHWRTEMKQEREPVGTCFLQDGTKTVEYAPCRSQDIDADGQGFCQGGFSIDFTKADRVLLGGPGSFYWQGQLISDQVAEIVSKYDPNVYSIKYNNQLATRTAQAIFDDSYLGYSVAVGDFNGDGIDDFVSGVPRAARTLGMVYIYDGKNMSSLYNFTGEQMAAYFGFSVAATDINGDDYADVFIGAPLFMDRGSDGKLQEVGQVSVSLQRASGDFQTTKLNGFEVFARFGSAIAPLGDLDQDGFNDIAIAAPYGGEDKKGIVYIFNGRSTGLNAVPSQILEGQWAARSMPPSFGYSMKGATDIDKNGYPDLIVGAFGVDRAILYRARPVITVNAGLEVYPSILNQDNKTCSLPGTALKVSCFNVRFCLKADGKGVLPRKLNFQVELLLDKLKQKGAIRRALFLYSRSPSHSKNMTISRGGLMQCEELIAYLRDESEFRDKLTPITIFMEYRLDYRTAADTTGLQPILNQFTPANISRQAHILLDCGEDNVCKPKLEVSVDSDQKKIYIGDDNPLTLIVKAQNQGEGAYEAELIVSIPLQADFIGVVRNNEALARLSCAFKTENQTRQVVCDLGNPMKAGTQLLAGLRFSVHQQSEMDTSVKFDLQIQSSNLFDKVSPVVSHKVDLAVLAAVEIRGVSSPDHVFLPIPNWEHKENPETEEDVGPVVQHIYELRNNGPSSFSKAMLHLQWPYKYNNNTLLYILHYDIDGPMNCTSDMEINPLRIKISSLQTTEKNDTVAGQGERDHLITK
T2 sequence (P06756 891-1048 partner limits assumed): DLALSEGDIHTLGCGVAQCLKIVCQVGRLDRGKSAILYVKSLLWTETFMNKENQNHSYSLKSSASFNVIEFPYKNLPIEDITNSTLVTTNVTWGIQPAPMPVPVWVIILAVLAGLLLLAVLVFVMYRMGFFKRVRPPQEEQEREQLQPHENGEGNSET
T2 sequence (P05106 27-788): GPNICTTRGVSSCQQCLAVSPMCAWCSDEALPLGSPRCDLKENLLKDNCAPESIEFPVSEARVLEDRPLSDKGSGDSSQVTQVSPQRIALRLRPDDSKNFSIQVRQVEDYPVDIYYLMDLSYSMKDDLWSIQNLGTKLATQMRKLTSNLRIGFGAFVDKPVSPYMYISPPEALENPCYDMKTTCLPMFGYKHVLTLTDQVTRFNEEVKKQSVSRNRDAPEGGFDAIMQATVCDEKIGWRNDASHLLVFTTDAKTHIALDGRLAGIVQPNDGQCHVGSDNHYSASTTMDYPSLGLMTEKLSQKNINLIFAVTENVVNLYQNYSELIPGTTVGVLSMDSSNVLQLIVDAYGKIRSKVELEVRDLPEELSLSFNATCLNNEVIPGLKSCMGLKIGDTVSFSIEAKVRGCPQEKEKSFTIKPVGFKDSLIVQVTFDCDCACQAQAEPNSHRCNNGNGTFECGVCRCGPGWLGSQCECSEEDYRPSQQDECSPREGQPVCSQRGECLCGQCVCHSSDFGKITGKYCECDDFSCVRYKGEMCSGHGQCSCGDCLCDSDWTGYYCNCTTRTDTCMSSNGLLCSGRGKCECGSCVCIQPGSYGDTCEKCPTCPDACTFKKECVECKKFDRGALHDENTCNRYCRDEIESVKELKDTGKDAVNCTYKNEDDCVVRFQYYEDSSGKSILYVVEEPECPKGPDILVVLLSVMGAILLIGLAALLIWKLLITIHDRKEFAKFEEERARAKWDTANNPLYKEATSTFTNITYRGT

| Compound | effect on adhesion to fibronectin (α5^+ HT29 cells) | effect on ligand binding to α5β1 (integrin α5β1) | effect on cell attachment to vitronectin [1] | effect on tumor size [2] | effect on adhesion to fibronectin [3] | effect on adhesion to fibronectin [4] | effect on ligand binding to αVβ3 and other integrins (integrin αVβ3) | effect on VEGF angiogenesis [5] | effect on endothelial cell migration on fibronectin (HUVEC's) | IC50 [6] [nM] | effect on bFGF-induced angiogenesis [7] |
| --- | --- | --- | --- | --- | --- | --- | --- | --- | --- | --- | --- |
| Cc1cc(C)c(S(=O)(=O)N[C@@H](CNC(=O)C2=NOC3(C2)CC(CNc2ccccn2)N(C(=O)OCc2ccccc2)C3)C(=O)O)c(C)c1 (some centres unmarked) [SJ749] | inhibitory effect | selectively inhibited; also recorded: interfered | ineffective | induced tumor regression | blocked | blocked | substantially less effective | did not block | highly effective | 7.5 | blocked; also recorded: dose dependent inhibitory effect; also recorded: reduced or inhibited angiogenesis in a dose dependent manner |
| CATAERWRC ["scrambled" control peptide] | little effect | – | little effect | continued to increase in size | little effect | little effect | – | – | – | – | did not inhibit |
